According to the NIST ThermoML archive (doi:10.1016/j.fluid.2013.11.034):
± gives the expanded uncertainty stated by the source.

Key:
[1] = refractive index (Na D-line) (dimensionless); conditions: 298.15 K; 101.33 kPa; Liquid; Standard Abbe refractometry
[2] = 101.33 kPa, Liquid, Vibrating tube method

refractive index [1]: 1.40926 ± 0.0006 | mass density ([2]; 293.15 K): 1371.4 ± 1.2 kg/m3 | mass density ([2]; 298.15 K): 1367.23 ± 1.1 kg/m3
SMILES: CCCCn1cc[n+](C)c1.F[P-](F)(F)(F)(F)F [1-butyl-3-methylimidazolium hexafluorophosphate]
